According to a melting point compilation (Tetko et al.; mined from patent text by program, amines drawn as free bases though some values may be those of a salt):

| SMILES | melting point |
| --- | --- |
| CC(C)Nc1cccnc1N1CCN(C(=O)c2ccc(C(=O)N3CCN(CCOCCO)CC3)cc2)CC1 | 92 to 93 °C |
| O=C(c1ccccc1)c1cc(C(F)(F)F)ccc1NC=C[N+](=O)[O-] | 196 to 198 °C |
| COc1cc(N)c(Cl)cc1C(=O)N[C@H]1CCN(CCCC(=O)N2CCC(=O)CC2)C[C@H]1OC (relative stereo) | 157 °C |
| O=C(O)c1ccc(/C=C\C(c2cc(Cl)c(Cl)c(Cl)c2)C(F)(F)F)cc1Br (centres undefined) | 54 to 64 °C |
| NS(=O)(=O)c1ccc(-c2noc(-c3cnc4c(C(F)(F)F)cc(-c5ccc(C(F)(F)F)cc5)cn34)n2)cc1 | 292 °C |
| CC(C)(C)c1cc(C(C)(C)C)cc(C(C)(C)CC(=O)OP2(=O)Oc3c(cc(C(C)(C)C)cc3C(C)(C)C)Cc3cc(C(C)(C)C)cc(C(C)(C)C)c3O2)c1 | 188 °C |
| Clc1ccc(C(Br)C(Br)c2ncon2)cc1 (centres undefined) | 141 to 142 °C |
| O=C(c1cccc2ccccc12)P1(=O)Oc2ccccc2-c2ccccc21 (centres undefined) | 149 to 151 °C |
| Cc1c(C(=O)Nc2ccc(N3CCC(N4CCCCC4)CC3)c(C#N)c2)cnn1-c1ccc(F)cc1 | 237 to 238 °C |
| CC(C)(C)[Si](C)(C)OCCn1ccc([N+](=O)[O-])n1 | 76 to 77 °C |
| Cc1ccc(C(=S)c2[nH]c3cc(Cl)ccc3c2N)cc1 | 172 to 173 °C |
| CCCCCCCc1ccc(C(=O)Nc2ccc(C(=O)NN=C3C(=O)Nc4ccc(I)cc43)cc2)cc1 | 306 °C |
| CC(C)c1cccc(C(C)C)c1NS(=O)(=O)CC(=O)NCC(c1ccccc1)C1CCCC1 (centres undefined) | 168 to 170 °C |
| COc1cc(C(=O)NN2CCN(C)CC2)ccc1Nc1ncc2c(n1)N(C1CCCC1)CC(F)(F)C(=O)N2C | 168 to 174 °C |
| CCCCCCCCCCCCCC(=O)Nc1ccc(Cl)c(NC2=NN(c3c(Cl)cc(Cl)cc3Cl)C(=O)C2n2ccnc2)c1 (centres undefined) | 172 to 174 °C |
| CC(=O)Nc1cc([N+](=O)[O-])ccc1OCCCN(C)C | 69 °C |
| CCCN(CCC)Cc1nc(-c2ncn3c2CN(C)C(=O)c2c-3cccc2C(F)(F)F)no1 | 216 to 218 °C |
| O=C1C(=O)N2CCOc3c(Cl)c(Cl)cc1c32 | 237 to 238 °C |
| COC(=O)[C@H]1[C@H](NC(C)=O)C(=O)O[C@@H]1C | 105 to 106 °C |

| SMILES | melting point |
| --- | --- |
| C=CCNc1ccc(N(CC=C)CC=C)cc1[N+](=O)[O-] | 131 to 140 °C |
| CCOC(=O)C(=NOC)c1csc(NC(=O)OCC(Cl)(Cl)Cl)n1 | 125 to 128 °C |
| CCC(=O)N1N=C(c2ccc(N)cc2)c2cc(Br)ccc2CC1C (centres undefined) | 99 to 102 °C |
| CCCCCCN1C(=O)c2cscc2Nc2ccccc21 | 100 to 102 °C |
| CCCc1nn(C)c2c(=O)n(CCCOc3ccc(OC(C)(C)C(=O)O)cc3)c(CC)nc12 | 124 to 126 °C |
| O=C(Oc1c(F)c(F)c(F)c(F)c1F)[C@H]1CCC(=O)N1C(=O)OCc1ccccc1 | 81 to 82 °C |
| CC(=O)NC1Cc2ccc(O)cc2C1 (centres undefined) | 123 to 126 °C |
| CC(=O)O[C@H]1[C@H]([C@H](Cc2ccccc2)NC(=O)OCc2ccccc2)OC(=O)N[C@H]1Cc1ccccc1 | 140 to 142 °C |
| CN1Cc2ccccc2[C@H]2c3cccc4[nH]cc(c34)C[C@@H]21 (relative stereo) | 215 °C |
| COc1ccc(C(=O)C(Br)CC2CCCCC2)c(OC)c1 (centres undefined) | 83 to 89 °C |
| CCCCNC(=O)c1ncc[nH]1 | 188 to 190 °C |
| COc1ccc2[nH]c3c(c2c1)CC(N(C)C)CC3 (centres undefined) | 126 to 128 °C |
| CS(=O)(=O)c1ccc(C2=C(Br)C(=O)C3(CCCCC3)O2)cc1 | 163 to 164 °C |
| NC(=O)NC1CCCCCC1 | 203 to 204 °C |
| CNc1nc(NS(=O)(=O)c2ccc(N)cc2)cc(N2CCCC2)n1 | > 300 °C |
| CCC(=O)C1=C(O)CC(c2c(C)c(C)c(C)c(C)c2C)CC1=O (centres undefined) | 84 °C |
| CCCCCCCOCCCCCCNCc1c(CO)ccc(O)c1CO | 72 to 74 °C |
| CCCc1nc2c(N)nc3cc(OCCNS(C)(=O)=O)ccc3c2s1 | 148 to 151 °C |
| NC(=O)/C=C/C1=CC=CC(F)(C(F)(F)F)C1 (centres undefined) | 121 to 122 °C |

| SMILES | melting point |
| --- | --- |
| CC(C)CCOC(=O)COc1cc(F)ccc1C(=S)NCc1cccc([N+](=O)[O-])c1 | 56 to 58 °C |
| CCCCN(CCCC)c1ccc(C=CC2=C(OC)C(=CC=CC3=C(C#N)C(=C(C#N)C#N)OC3(c3ccccc3)C(F)(F)F)CC(C)(C)C2)c(OC)c1 (centres undefined) | 153 to 158 °C |
| CCOC(=O)c1c(O)c2c(CC)nc(CC)cc2[nH]c1=O | 159 to 160 °C |
| CCCn1c(=O)n(C2OC(CO)C(O)C2O)c2nc(N)[nH]c(=O)c21 (centres undefined) | 151 to 153 °C |
| O=C(O)c1cc(-n2cccc2)cc(C(F)(F)F)c1 | 191 to 192 °C |
| CCCCCCCCCCCCCCCCc1cc(OC)nc(N(C)C)n1 | 49 to 50 °C |
| CCNc1nc2ccc(CCc3ccc(CN4CCCCC4)o3)cc2o1 | 98 to 100 °C |
| Cc1ccc(CC2=NOS(=O)N2)cc1C (centres undefined) | 127 to 130 °C |
| COC(=O)COc1ccc(C(=O)CN(C)C(=O)c2ccc(C(=N)N)cc2)cc1OCC(=O)OC | 177 to 178 °C |
| CC(=O)Nc1cc(-n2c(=O)cc(C(F)(F)F)n(C)c2=O)c(F)cc1Cl | 257 to 258 °C |
| O=C(CN(C(=O)C(=O)N(CC(=O)OCc1ccccc1)S(=O)(=O)C(F)(F)F)S(=O)(=O)C(F)(F)F)OCc1ccccc1 | 53 to 55 °C |
| CCOC(=O)Cc1sc(Sc2ccnc(SC)n2)nc1C | 68 to 72 °C |
| O=C(O)c1ccc2c(=O)n(CCCCN3CC=C(c4ccccc4)CC3)c(=O)[nH]c2c1 | 296 to 305 °C |
| CC(=O)NC1([N+](=O)[O-])C=C(C)C=CN1 (centres undefined) | 146 to 149 °C |
| CCOC(=O)N(c1ccccc1N=NC(NC(=O)CCl)(C(=O)OCC)C(=O)OCC)c1cccc(C)c1C | 120 to 122 °C |
| CC1(C)CCC(C)(C)c2cc(-c3ccc4cc(C(=O)O)cc(O)c4c3)ccc21 | 299 °C |
| O=C(O)Cc1ccc(C#CC#Cc2ccc(CC(=O)O)cc2)cc1 | 91 °C |
| COc1cc(Br)c(C2=NC(C)(C)CO2)cc1OC | 49 to 51 °C |

Now from value to molecule:

| melting point | SMILES |
| --- | --- |
| 132 to 133 °C | CC(C)(C)OC(=O)N1CCc2c(n(CCOc3ccccc3)c3c(Cl)ccc(Cl)c23)CC1 |
| 132 to 136 °C | CN1CCN(c2cc(Cl)cc3c2c(=O)n(Cc2ccccc2)c(=O)n3C)CC1 |
| 76 to 78 °C | CCOC(=O)C(Cc1ccc(OCCN2COc3ccccc3C2=O)cc1)OCC (centres undefined) |
| 104 to 105 °C | CCN(CCCN1c2ccccc2N(C)C(=O)c2ccc(C)nc21)C(C)C |
| 115 to 117 °C | Fc1ccc(Nc2nc3ccccc3o2)c(F)c1 |
| 129 to 132 °C | CN(C)C(=O)C(C)(c1ccccc1)n1ccc(-c2ccccc2)n1 (centres undefined) |
| 108 to 110 °C | COc1ccc(Nc2ccccc2)c2ccccc12 |
| 88 to 92 °C | c1ccc(C2(Cc3ccncc3)c3ccccc3-c3sccc32)cc1 (centres undefined) |
| 198 to 200 °C | O=C1c2ccccc2C(=O)N1Cc1cc(F)ccc1[N+](=O)[O-] |
| 145 to 148 °C | O=C1C(=O)N(CCN2CCN(C(c3ccccc3)c3ccccc3)CC2)c2ccccc21 |
| 330 °C | O=C1NC(=O)C2(C=COc3c2ccc2ncccc32)N1 (centres undefined) |
| 175 to 177 °C | CCCc1c(C(=O)NCc2ccc3cc(OCC(=O)O)ccc3c2)cnn1-c1ccccc1 |
| 146 to 148 °C | COc1ccc(-c2ocnc2-c2cc(OC)c(Cl)c(OC)c2)cc1N |
| 245 to 247 °C | N=C(Nc1ccc(C(=O)O)cc1)Nc1nc(-c2ccccc2)cs1 |
| 177 to 178 °C | COc1ccc(S(=O)(=O)N2CCc3cccc(-c4ccc(Cl)cc4)c32)cc1 |
| > 250 °C | Cn1ncc2[nH]c3ccc(-c4cccc(O)c4)cc3c(=O)c21 |
| 199 to 200 °C | CON(C)C(=O)Nc1c(C(=O)c2cc(C)ccn2)[nH]c2cc(Cl)ccc12 |
| 172 to 173 °C | CC(C)CC(=O)Nc1cccc(-c2ccnc3c(-c4ccc5c(c4)OCO5)cnn23)c1 |
| 187 to 188 °C | O=c1c2c(n(-c3ccccc3)c3ncccc13)OC(CBr)C2 (centres undefined) |

| melting point | SMILES |
| --- | --- |
| 103 to 104 °C | CCCCCc1nc(C)c(C(=O)OCC)n1Cc1ccc2oc(-c3ccccc3-c3nnn[nH]3)c(Br)c2c1 |
| 172 to 174 °C | CCOC(=O)CNC(=O)c1cn2nc(NCCCN3CCC(OC(c4ccccc4)c4ccccc4)CC3)ccc2n1 |
| 98 to 100 °C | CCOCn1c(-c2ccc(Cl)cc2)c(C#N)c(Sc2ccc(Cl)cc2)c1C(F)(F)F |
| 184 to 186 °C | CCCCc1oc2ccccc2c1-c1ncc(-c2ccc3cc(O)ccc3c2)o1 |
| 111 to 112 °C | CCCOc1ccccc1-c1nc2c(CCC)nn(C)c2c(=S)[nH]1 |
| 134 to 136 °C | CN(C)CCCN(c1ccccc1)c1ncccc1NC(=O)c1ccccc1[N+](=O)[O-] |
| 205 to 210 °C | CS(=O)(=O)Nc1cccc(Nc2nc(NCCc3c[nH]cn3)c3nc[nH]c3n2)c1 |
| 171 to 172 °C | O=C(c1ccc(-n2ccnc2)cc1)N1Cc2cccn2Cc2ccccc21 |
| 88 to 94 °C | CCOc1cc2ncc(C#N)c(Nc3ccc(Sc4ccccc4)c(Cl)c3)c2cc1OCC |
| 118 to 120 °C | Cc1ccc2c3c(ccc2n1)OC[C@H](CN1CCN(c2ccc(C)c(C)c2)CC1)O3 |
| 158 to 159 °C | O=C(NCCO)c1cccc(-c2ccnc3cc(Cc4cccc(C(F)(F)F)c4)oc23)c1 |
| 174 to 176 °C | Oc1ccccc1-c1nc(-c2ccccc2O)n(Cc2cccnc2)n1 |
| 221 to 224 °C | CC1(C)CCC(C)(C)c2cc(C(=O)c3ccc(C(O)=NO)cc3)c(OCc3ccc(Br)cc3)cc21 |
| 159 to 160 °C | Cc1cc(CC2(Cc3cc(C)nc(Cl)c3)c3ccccc3-c3ncccc32)cc(Cl)n1 |
| 73 to 75 °C | COc1cc(C)ccc1OC(=O)c1ccccc1 |
| 228 to 231 °C | O=C(O)Cc1c(C(=O)c2ccc(-c3ccccc3)cc2)[nH]c2cc(Cl)ccc12 |
| 291 °C | CC(=O)Nc1cccc2c1C(=O)c1c-2n[nH]c1-c1ccc(N2CCCCC2)cc1 |
| 139 to 140 °C | CCN(CCOC)C(=O)c1cc(-c2ccccc2)c(=O)n2c1-c1ccccc1C2 |
| 51 to 55 °C | CCOC(=O)[C@H](CSCc1ccc(C)c(C)c1)NC(=O)C(CSC(C)=O)Cc1ccccc1 (some centres undefined) |
